According to US8506950B2, “Degradable microcapsules” (ETH Zurich, priority 2008, dated 2013):

What was measured:
[1] = target: T1, rLHR (Rattus norvegicus, UniProt P16235); test: bLH-dependent disruption of CS/pDADMAC microcapsules containing CK04 cells transfected with pCK71; format: cell-based; set-up: Full-length cDNAs encoding the LHRs of rat (r) and bovine (b) origin; expressed in transfected cells; host or cells: CK04: HEK293T stably cotransfected with pLEN-rLHR and pZeoSV2(+), clone 6; details: 500 ng/ml bLH, 24 hours post-induction
T1 sequence (P16235 27-700): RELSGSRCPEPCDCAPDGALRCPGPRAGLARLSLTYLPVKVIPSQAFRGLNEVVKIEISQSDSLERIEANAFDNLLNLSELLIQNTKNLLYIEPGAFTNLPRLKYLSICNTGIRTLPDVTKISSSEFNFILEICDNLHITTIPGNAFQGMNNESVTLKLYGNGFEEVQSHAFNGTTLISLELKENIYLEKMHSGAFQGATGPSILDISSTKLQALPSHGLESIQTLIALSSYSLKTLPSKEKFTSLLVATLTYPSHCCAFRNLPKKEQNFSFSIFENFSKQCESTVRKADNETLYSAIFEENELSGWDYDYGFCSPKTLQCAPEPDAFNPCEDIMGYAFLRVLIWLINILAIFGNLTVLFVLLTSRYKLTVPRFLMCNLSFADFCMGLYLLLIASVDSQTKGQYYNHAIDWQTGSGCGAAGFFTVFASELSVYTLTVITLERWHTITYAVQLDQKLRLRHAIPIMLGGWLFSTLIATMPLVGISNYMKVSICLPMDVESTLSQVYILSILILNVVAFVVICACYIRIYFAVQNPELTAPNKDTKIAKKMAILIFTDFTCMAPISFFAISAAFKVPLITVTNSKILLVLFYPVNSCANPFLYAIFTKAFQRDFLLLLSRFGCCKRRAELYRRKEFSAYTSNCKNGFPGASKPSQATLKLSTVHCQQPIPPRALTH
Protocol: (A) Phase-contrast photomicrographs of CS/pDADMAC encapsulated CK04 cells transiently transfected for PCRE controlled cellulase expression (pCK71, PCRE-cellulase-pA). The microcapsules were cultured in the absence or presence of 500 ng/ml bLH. In the presence of bLH the capsules were disrupted by the induced expression of cellulase whereas the non-induced capsules remained intact. Arrows indicate the disrupted capsules.
(B) Quantification of microcapsule disruption. Per sample approximately 150 capsules were counted and the amount of capsule disruption was calculated. 24 hours post-induction 98% of the capsules were disrupted by the induced cellulase. […]
Cells were encapsulated using the Inotech Encapsulator Research Unit IE-50R (Inotech Biotechnologies Ltd, Basel, Switzerland). […] The cells were counted using a Casy Counter (Scharfe Systems, Reutlingen, Germany) and 1×10^6 cells were resuspended in sodium […] sulfate solution (2% (w/v) in PBS, CS, Euroferm, Erlangen, Germany, Batch-No: FCY-06A) and aseptically encapsulated according to the standard protocol using the following settings: 0.2 mm nozzle with a nozzle vibration frequency of 1250 Hz, 20 ml syringe at a flow rate of 410 units, voltage for bead dispersion 1.15 kV. […]

[2] = target: T1, rLHR; test: Reporter gene expression (SEAP, eYFP) of CS/pDADMAC-encapsulated CK04 cells; format: cell-based; set-up: Full-length cDNAs encoding the LHRs of rat (r) and bovine (b) origin; expressed in transfected cells; host or cells: CK04: HEK293T stably cotransfected with pLEN-rLHR and pZeoSV2(+), clone 6
Source text: The SEAP production increased over time in the presence but not the absence of bLH.
To determine whether bLH can penetrate microcapsules and activate the gene expression of encapsulated cells, CK04 cells were transiently transfected with a vector encoding PCRE controlled eYFP expression (pCK91, PCRE-eYFP-pA). After transfection the cells were encapsulated in CS/pDADMAC-microcapsules and cultured in the absence or presence of bLH. […] In contrast in the absence of bLH the cells remained non-fluorescent. […] It was also investigated if the activation of encapsulated cells is bLH dose- and time-dependent. Therefore, CK04 cells transiently transfected for PCRE dependent SEAP expression (pCK62, PCRE-SEAP-PA) were encapsulated, the capsules cultured in the absence or presence of 100 ng/ml or 500 ng/ml bLH and the SEAP expression measured in 12 hours intervals (FIG. 11). […] 60 hours post-induction a 2.3±0.2 fold higher SEAP expression for LH-surge doses of bLH compared to 100 ng/ml hormone was measured. […]
The intracellular cAMP production of cells was quantified using the cAMP Fluorescence Polarization (FP) Biotrak Immunoassay System (GE Healthcare Bio-Sciences GmbH, Otelfingen, Switzerland, Cat No. RPN3595) according to the manufacturer's protocol. The expression of firefly luciferase was determined with the Tropix Luciferase Assay Kit (Applied Biosystems, Bedford, USA, Cat No. BC100L). […]

disrupted capsules [1]: 98%
SEAP expression for LH-surge doses of bLH compared to 100 ng/ml ([2]; encapsulated CK04, pCK62, 60 hours post-induction, 500 ng/ml vs 100 ng/ml): 2.3±0.2 fold
eYFP expression of encapsulated cells ([2]; encapsulated CK04, pCK91, bLH present): strongly induced
Substance: bovine luteinizing hormone [bLH]
